One data set deals with MCF-7 cells. Nature of the data set: MCF-7 cell proliferation inhibition experiment. Particulars: 6 days incubation, CellTiter-Glo, read-out: Anti-cell proliferation activity of MCF-7. It is filed as cell-based. As for the experimental part:
(1) MCF-7 Cell Proliferation Inhibition Experiment:
EMEM culture medium was purchased from Wisent, and fetal bovine serum was purchased from Biosera, Promega CellTiter-Glo reagent. MCF-7 cell line was purchased from Cell Bank of Type Culture Collection of Chinese Academy of Sciences. Nivo5 multi-label analyzer (PerkinElmer).
MCF-7 cells were seeded in a white 384-well plate with 600 cells per well in every […] of the cell suspension. The cell plate was placed in a carbon dioxide incubator and cultured overnight.
The test compound was diluted to the 10th concentration with a multi-channel pipette, and the compound concentration was 1 mM, 400 μM, and 80 μM, and then diluted to the 10th concentration of 1 nM in turn, and a double-duplicate experiment was set-up. 47.5 μL of culture medium was added to the middle plate, then 2.5 μL of gradient dilution compound per well was transferred to the middle plate according to the corresponding position, and 5 μL of the mixture per well was mixed evenly and transferred to the cell plate. The cell plate was placed in a carbon dioxide incubator and cultured for 6 days.
After 6 days of co-incubation of the compound, the culture medium was removed by centrifugation, and 25 μL of Promega CellTiter-Glo reagent was added to each well of the cell plate, and incubated at room temperature for 10 minutes to stabilize the luminescence signal. PerkinElmer Nivo multi-marker analyzer reading was used. In the experiment, the reading of 2 μM positive reference compound H3B-6545(US20160347717A1) was used as a positive control to participate in data calculation.
The equation % Inhibition=((RFUCmpd−AVER(RFUNeg.ctrl))/((AVER(RFUPos.Ctrl)−AVER(RFUNeg.ctrl))×100% was used to convert the original data into inhibition rate, and the compound curve was fitted by log(inhibitor)vs. response-Variable slope of Graphpad Prism 5. The IC50 value was calculated by the software through the formula Y=Bottom+(Top−Bottom)/(1+10^((Log IC50−X)*HillSlope)).
A general note: In ATP-based viability assays light output follows the ATP content of the culture.

Another data set concerns the target CYP1A2 (Homo sapiens (Human), UniProt P05177). It is filed as in vitro ADME. Particulars: microsomes. As for the experimental part:
Experimental purposes: To test the inhibitory effect of test compound on the activity of human liver microsomal cytochrome P450 isoenzymes (CYP1A2 and CYP3A4) (Corning, Co., Ltd.).
Experimental operation: Firstly, the test compound (10 mM) was subjected to gradient dilution to prepare a working solution (100×final concentration), and the concentration of the working solution was: 5, 1.5, 0.5, 0.15, 0.05, 0.015 and 0.005 mM, respectively, and the working solution of each positive inhibitor of P450 isoenzyme (CYP1A2 and CYP3A4) and its specific substrate mixture (5 in 1) were prepared; and then the human liver microsomes frozen in the −80° C. refrigerator were thawed on ice, and all the human liver microsomes were dissolved, diluted with PB, and a certain concentration of working solution (0.253 mg/mL) was prepared; 20 μL of substrate mixture was added to the reaction plate (20 μL of PB was added to the blank well), while 158 μL of human liver microsomal working solution was added to the reaction plate, and the reaction plate was placed on ice for later use; at this time, 2 μL of various concentrations of the test compound (N=1) and specific inhibitor (N=2) were added to the corresponding well, and the corresponding organic solvent was added to the non-inhibitor (test compound or positive inhibitor) group as a control group sample (a ratio of DMSO:MeOH in the test compound control sample was 1:1, a ratio of DMSO:MeOH in the positive control sample was 1:9); after pre-incubation in a water bath at 37° C. for 10 min, 20 μL of coenzyme factor (NADPH) solution was added to the reaction plate, and incubated in a water bath at 37° C. for 10 min; and 400 μL of cold acetonitrile solution (internal standard was 200 ng/mL tolbutamide and labetalol) was added to terminate the reaction; the reaction plate was placed on a shaker and shaked for 10 minutes; and then centrifuged at 4,000 rpm for 20 minutes; 200 μL of the supernatant was taken and added to 100 μL of water for sample dilution; finally the plate was sealed, shaked and shaked well, for LC/MS/MS detection.

Data set [1] can be described thus: In vivo pharmacokinetic study in rats. On the set-up: species or system male SD rats. The source says: Experimental purposes: To test the drug concentration in plasma of rats at different times after intravenous and intragastric administration of the test compound by LC/MS/MS using male fasted SD rats as the experimental animals. To study the pharmacokinetics of the test compound in rats in vivo and evaluate their pharmacokinetic characteristics.
Experimental animals: 4 healthy male SD rats were divided into 2 groups according to the principle of similar body weight, with 2 mice in each group in IV group and 2 mice in each group in PO group. Animals were purchased from Beijing Vital River Laboratory Animal Co., Ltd.
IV group: Appropriate number of samples were weighed and prepared into 0.5 mg/mL solution respectively, and the mixture was stirred and ultrasonicated to reach a clear state, and the solvent was 15% HP-β-CD.
PO group: Appropriate amount of the solution prepared in IV group was diluted to 0.4 mg/mL with 15% HP-β-CD.
Administration: After fasting overnight, IV group was administered intravenously, and the dosage of the test compound was 1 mg/kg; PO group was administered intragastrically, and the dosage of the test compound was 2 mg/kg.
After the male rats in the intravenous injection group were given the test compound respectively, 200 μL of blood was collected from the jugular vein at 0.0833, 0.25, 0.5, 1, 2, 4, 8, and 24 hours, and placed in a commercialized anticoagulant tube added with EDTA-K2 in advance. After intragastric administration of the test compound, 200 μL of blood was collected from the jugular vein at 0.25, 0.5, 1, 2, 4, 8, 12 and 24 hours, respectively, and placed in a commercialized anticoagulant tube added with EDTA-K2 in advance. After centrifugation (3,200 g, 4° C., 10 minutes), the plasma was collected, transferred to a pre-cooled centrifuge tube, quickly frozen in dry ice, and stored in a refrigerator at −60° C. or lower, until LC-MS/MS analysis. Animals were allowed to eat 4 hours after administration. LC/MS/MS method was used to determine the content of the test compound in the plasma of rats after intravenous and intragastric administration. The linear range of the method was 2.00 to 2000 nM.

The mark [2] stands for this setting: male, SD, rat, plasma, iv, i.v. 1 mg/kg.
[3] abbreviates: male, SD, rat, plasma, po, p.o. 2 mg/kg.

Where two headings read alike, the source gives them in different places. A value given as a limit tells only on which side of the number the result lay.

Chain of CYP1A2 (P05177 whole entry): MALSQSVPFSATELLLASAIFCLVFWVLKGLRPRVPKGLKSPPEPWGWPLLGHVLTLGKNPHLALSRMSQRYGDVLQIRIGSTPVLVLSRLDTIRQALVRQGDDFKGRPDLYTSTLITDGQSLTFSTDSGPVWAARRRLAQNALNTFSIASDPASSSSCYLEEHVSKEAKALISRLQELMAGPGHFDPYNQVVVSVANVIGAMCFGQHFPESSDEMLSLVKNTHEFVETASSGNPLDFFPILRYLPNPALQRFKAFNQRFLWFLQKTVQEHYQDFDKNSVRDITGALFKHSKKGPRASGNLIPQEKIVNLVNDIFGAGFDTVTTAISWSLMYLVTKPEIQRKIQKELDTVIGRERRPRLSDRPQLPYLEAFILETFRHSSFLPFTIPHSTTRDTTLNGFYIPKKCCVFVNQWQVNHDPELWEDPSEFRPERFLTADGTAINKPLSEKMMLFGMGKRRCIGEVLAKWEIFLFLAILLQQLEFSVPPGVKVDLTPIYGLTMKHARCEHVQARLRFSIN

A word on the Vdss: it is a proportionality between amount in the body and measured concentration, not a real space. Higher therefore signals extensive tissue distribution. The term Cmax denotes the highest concentration seen after dosing. As for `FCCCN1CC[C@H](Nc2cnc(C3=C(CC(F)(F)F)CCCc4c3ccc3[nH]nc(F)c43)cn2)C1` [Compound 11A], the IC50 in the data set with MCF-7 cells is 0.17 nM. The same compound had an IC50 against CYP1A2 of over 50000 nM. For the same compound, in data set [1] (i.v. 1 mg/kg), the AUC0-last was found to be 0.518 µM·h, the Cl is 53.1 mL/min/kg, the T1/2 was 3.19 h and the Vdss stood at 14.5 L/kg. In addition, in data set [1] (p.o. 2 mg/kg), the AUC0-last came to 0.601 µM·h, the peak level (Cmax) was 66.9 nM and the T1/2 was 8.96 h. For the same compound, in data set [1] (p.o. 2 mg/kg vs i.v. 1 mg/kg), the F % was 58.1%.

Usually AUC(0-t) stands for exposure summed from dosing to a finite time, without extrapolation to infinity. A high value points to more exposure. For orientation: clearance means the volume of plasma or blood freed of the substance per unit of time. One may read the half-life as how long it takes for the measured level to halve. A low value points to rapid decline. A word on the bioavailability: it is the share of a dose that reaches the circulation, judged against a reference dose that is usually intravenous. A high value points to much systemic uptake. As to `FCCCN1CC(Nc2ccc(C3=C(CC(F)(F)F)CCCc4c3ccc3[nH]nc(F)c43)nc2)C1` [Compound 2], the IC50 in the data set on MCF-7 cells (Homo sapiens, MCF7, 144 h) came to 0.42 nM. The compound also displayed an IC50 at CYP1A2 (human, 10 min) of over 50000 nM. In data set [1] (setting [2]), this compound gave an area under the curve AUC(0-t) of 0.493 µM·h, a clearance of 54.6 mL/min/kg and a half-life of 3.62 h. Besides, the Vd in data set [1] (male, SD, rat, plasma, iv, i.v. 1 mg/kg, read-out: Vdss) was 15.9 L/kg. In data set [1] (male, SD, rat, plasma, oral, p.o. 2 mg/kg vs i.v. 1 mg/kg), the bioavailability was determined as 24.3%. Moreover, in data set [1] (setting [3]), the AUC(0-t) came out at 0.24 µM·h, the highest level (Cmax) was 39.3 nM and the half-life is 5.8 h.

These data come from US12415799B2, “Indazole-fused cyclic compound” (Zhejiang Yangli Pharmaceutical Technology Co., Ltd., priority 2020, dated 2025).
